Measurements: patent US10294253B2, “Siloxane-containing phospholipids, compositions and uses thereof” (priority 2016, dated 2019)
“And” between values parts separate entries of the source, which are not always exact repeats. Equal entries are not always repeated. Where two headings read alike, the source gives them in different places. Marks after values point to notes of the source that are not given here.

Experiments:
[1] = literature value; cited from earlier work
[2] = fixed using experimentally determined volume, cited from earlier work; for ρH (fit parameter, headgroup electron density relative to water): 20° C
[3] = Dynamic light scattering (DLS) of liposome suspensions; assay type: physicochemical; conditions: for Dia. (vesicle diameter, most abundant population) / Rel. pop. (most abundant population) / Dia. (vesicle diameter, second population) / Rel. pop. (second population): aqueous suspension; for Dia. (vesicle diameter, most abundant population): POPC with 5 mol % POPG extruded through 100 nm membrane, SiPC not extruded; for Rel. pop. (most abundant population): first population; for polydispersity: most abundant population, liposomes not extruded
Protocol: POPC ULVs contain 5 mol % of 1-palmitoyl-2-oleoyl-sn-3-glcyercophosphoglycerol (POPG) and were extruded through a 100 nm polycarbonate membrane. SiPC suspensions were not extruded.
(§1) SiPCs were prepared as described above in Example 1. Aqueous dispersions of SiPCs were prepared by five freeze-thaw cycles to give opaque suspensions of vesicles suitable for Small-angle X-ray scattering (SAXS) analysis. Dispersion particle size was determined by dynamic light scattering (DLS) with a Nano Zetasizer ZS90 (Malvern Instruments, Worcestershire, U.K.).
(§2) 1-Palmitoyl-2-oleoyl-sn-3-glycercophosphocholine (POPC) and 1-palmitoyl-2-oleoyl-sn-3-glcyercophosphoglycerol (POPG) were purchased from Avanti Polar Lipids (Alabaster, Ala.) and used as received. POPC and 5 mol % POPG were co-dissolved in a chloroform:methanol (3:1) mixture. POPC was doped with 5 mol % POPG, to minimize pauci-lamellar vesicle contamination. Solvent was removed under a gentle stream of dry nitrogen gas then was put under vacuum for 8 hours. POPC:POPG film was hydrated with ultrapure water to a concentration of ˜30 mg/mL. ULVs were prepared using a manual miniextruder (Avanti Polar Lipids, Alabaster, Ala.), assembled with a 100 nm pore-diameter polycarbonate filter. The lipid suspension was passed through the filter 31 times. SAXS data were collected at the P12 BioSAXS beamline at the storage ring PETRA III (synchrotron DESY, Hamburg)^26 at a temperature of 20° C. SAXS data were visualized, averaged and the background was subtracted using ATSAS^27 and modelled using the method of Pabst et al.^28 The data was fit utilizing a standard non-linear least-squares fitting (NLSF) scheme within Origin (OriginLab, USA). Vesicle size was determined by dynamic light scattering (DLS) with a Nano Zetasizer ZS90 (Malvern Instruments, Worcestershire, U.K.)
The diameter standard deviation (a) for the vesicles (most abundant population) was below 20% of the diameter for liposomes of 1,2-SiPC and 1,3-SiPC, thus implying very low polydispersities of 0.16 and 0.19 respectively.

[4] = literature SDP model; cited from earlier work
[5] = Small-angle X-ray scattering (SAXS) of vesicle suspensions, 3-Gaussian electron density model; assay type: physicochemical; conditions: for ρC (fit parameter, hydrocarbon chain electron density relative to water) / zH (fit parameter, position of headgroup Gaussian) / σC (fit parameter, standard deviation of hydrocarbon Gaussian) / σH (fit parameter, standard deviation of headgroup Gaussian): 20° C, POPC ULVs with 5 mol % POPG; for ρC (fit parameter, hydrocarbon chain electron density relative to water): extruded 100 nm, SiPC freeze-thaw; for ρC (fit parameter, hydrocarbon chain electron density relative to water) / SAXS curve: bilayer-bilayer structure factor (Bragg peak), lamellarity: not extruded; for zH (fit parameter, position of headgroup Gaussian) / σC (fit parameter, standard deviation of hydrocarbon Gaussian) / σH (fit parameter, standard deviation of headgroup Gaussian): extruded, SiPC not extruded; for derived lipid volume / derived lipid volume relative to the volume from the atomic covalent radii: 3-Gaussian model; for SAXS curve: bilayer-bilayer structure factor (Bragg peak), lamellarity: freeze-thaw liposomes
Protocol: as §1, §2
SAXS is sensitive to the presence of multilamellar vesicles (MLVs) and is used to evaluate the presence of MLVs. Shown in FIG. 2 are SAXS data for an about 40 mM POPC vesicle suspension in water as 100 nm ULV (black) and MLVs (gray). For MLVs, density correlations between the stacked bilayers give rise to a bilayer-bilayer structure factor also known as Bragg Peaks at a length scale corresponding to integer multiples of the lamellar repeat distance (e.g., the first Bragg order at q˜0.1 Å^−1, corresponding to a lamellar repeat distance of ˜63 Å).
The scattering regime where bilayer structure (as opposed to vesicle sphericity) dominates the form factor is of most interest as information about vesicle size is obtained from the DLS. The scattered intensity of a dilute vesicle suspension is given by:
The functional model chosen to describe the electron density of the siloxane phospholipids is the three Gaussian model as outlined by Pabst et al. (2000).^28 In this model, the electron distribution is the summation of the headgroups, described by a single Gaussian (in total 2, one for each leaflet of the bilayer) and a Gaussian representing the hydrocarbon chains, Eqn 2.
The position of the Gaussian peak is at zi where i=H or C and zC=0, with a standard deviation of σi. For simplicity, ρH−ρw and ρC−ρw are referred to herein as ρH and ρC respectively. The form factor of this electron density model can then be calculated analytically by applying Eqn 3: F(q)=∫ρ(z)exp(iqz)dz (3) which yields:
Only the cosine terms remain due to the centrosymmetric nature of a single component lipid bilayer. A benefit of this method is that structural parameters can be derived from simple geometric relationships, without the need of volumetric data. Typically area per lipid AL is one of the more desirable structural parameters to be extracted from the data. To begin, the transverse structure of the bilayer is derived (along the bilayer normal), such as the hydrocarbon length (dC) and the headgroup thickness (dH). Simply, dH can be estimated from the full width at half maximum (FWHM) of the Gaussian describing the headgroups. Using dH, dC can be determined as: […]

[6] = Langmuir isotherms of phospholipid monolayers; assay type: physicochemical; conditions: 21.5° C
Text: The interfacial phase behaviour of lipids and phospholipids is an important area of study. Data from Langmuir isotherms can give insight into packing behaviour and collapse mechanisms of phospholipid monolayers. FIG. 1 presents the Langmuir isotherms for 1,2-SiPC, 1,3-SiPC, 1,2-dipalmitoyl-sn-3-phosphocholine (DPPC), and 1-palmitoyl-2-oleoyl-sn-3-phosphocholine (POPC). DPPC and POPC are biologically relevant lipids that are commonly used as model systems in the study of membrane topology. These two lipids differ in the degree of unsaturation with POPC containing a single unit of unsaturation in the oleic acid FA chain. […] The surface area at the collapse of 1,2-SiPC was approximately 70 Å^2 and that for 1,3-SiPC was 87 Å^2. Both of these values are larger than those observed for DPPC and POPC.
While not wishing to be bound by theory, the larger size of the siloxane tails strongly affects the mean molecular area of the lipid as well as the lipid area at monolayer collapse. Furthermore, the rotational freedom of the siloxane unit leads to behaviour similar to that for unsaturated phospholipids such as POPC.

[7] = geometrically derived from SAXS fit

Row | Compound | ρH (fit parameter, headgroup electron density relative to water) [2] | VH (PC headgroup volume) [2] | Dia. (vesicle diameter, most abundant population) [3] | Rel. pop. (most abundant population) [3] | ρC (fit parameter, hydrocarbon chain electron density relative to water) [5] | zH (fit parameter, position of headgroup Gaussian) [5] | σC (fit parameter, standard deviation of hydrocarbon Gaussian) [5] | σH (fit parameter, standard deviation of headgroup Gaussian) [5] | AL (area per lipid) [5, 7] | VC (hydrocarbon volume) [5, 7] | dB (bilayer thickness) [5, 7] | dC (hydrocarbon length) [5, 7] | dH (headgroup thickness) [5, 7] | dHH (headgroup-headgroup distance) [5, 7] | Dia. (vesicle diameter, second population) [3] | Rel. pop. (second population) [3] | polydispersity [3] | derived lipid volume [5] | derived lipid volume relative to the volume from the atomic covalent radii [5] | SAXS curve: bilayer-bilayer structure factor (Bragg peak), lamellarity [5] | other results
1 | CC(C)CCCC(C)CCCC(C)CCCC(C)CC(=O)OC[C@H](COP(=O)([O-])OCC[N+](C)(C)C)OC(=O)CC(C)CCCC(C)CCCC(C)CCCC(C)C (stereo partly drawn) [diPhyPC, 1,2-diphytanoyl-sn-glycero-3-phosphatidylcholine] | – | – | – | – | – | – | – | – | – | – | – | – | – | – | – | – | – | – | – | – | AL (area per lipid) [1]: 78 Å^2
2 | CCCCCCCC/C=C\CCCCCCCC(=O)O[C@H](COC(=O)CCCCCCCCCCCCCCC)COP(=O)([O-])OCC[N+](C)(C)C [POPC, 1-palmitoyl-2-oleoyl-sn-3-phosphocholine, reference compound] | 0.1609^a e/Å^3 | 331^a Å^3 | 98.1 nm | 100% | −0.152 ± 0.002 e/Å^3 | 18.16 ± 0.08 Å | 6.9 ± 0.2 Å | 3.77 ± 0.06 Å | 58.9 ± 2^ Å^2 | 961 ± 27 Å^3 | 43.7 Å and 43.7 ± 0.2 Å | 14.4 Å and 14.4 ± 0.1 Å | 7.5 ± 0.2 Å | 36.3 Å and 36.3 ± 0.1 Å | – | – | – | – | – | – | AL, SDP model derived [4]: 62.7±1 Å; dB (bilayer thickness), SDP analysis [4]: 39.8 Å; dC (hydrocarbon length), SDP analysis [4]: 14.6 Å; dHH (headgroup-headgroup distance), SDP analysis [4]: 37.4 Å; lamellar repeat distance ([5]; about 40 mM POPC MLVs in water, first Bragg order at q~0.1 Å^-1): ~63 Å; derived AL (area per lipid) [5, 7]: 58.9±2 Å
3 | C[N+](C)(C)CCOP(=O)([O-])OCC(COC(=O)CCCCCCCCC[Si](C)(C)O[Si](C)(C)O[Si](C)(C)C)OC(=O)CCCCCCCCC[Si](C)(C)O[Si](C)(C)O[Si](C)(C)C (racemic) [1,2-SiPC] | 0.1609^a e/Å^3 | 331^a Å^3 | 193.7 nm | 79% | −0.106 ± 0.002 e/Å^3 | 18.2 ± 0.05 Å | 14.1 ± 0.2 Å | 4.6 ± 0.1 Å | 69 ± 2 Å^2 | 1243 ± 42 Å^3 | 45.5 ± 0.3 Å | 9.9 ± 0.5 Å | 9.1 ± 0.3 Å | 36.3 ± 0.1 Å | 949.8 nm | 21% | 0.16 | 1574 Å^3 | 7 factor | without the presence of a bilayer-bilayer structure factor (Bragg Peak) | surface area at the collapse of the monolayer [6]: approximately 70 Å^2
4 | C[N+](C)(C)CCOP(=O)([O-])OC(COC(=O)CCCCCCCCC[Si](C)(C)O[Si](C)(C)O[Si](C)(C)C)COC(=O)CCCCCCCCC[Si](C)(C)O[Si](C)(C)O[Si](C)(C)C [1,3-SiPC] | 0.1609^a e/Å^3 | 331^a Å^3 | 123.4 nm | 89% | −0.101 ± 0.003 e/Å^3 | 17.6 ± 0.1 Å | 13.3 ± 0.3 Å | 4.3 ± 0.2 Å | 72 ± 4 Å^2 | 1246 ± 81 Å^3 | 43.9 ± 0.4 Å | 13.2 ± 0.2 Å | 8.6 ± 0.5 Å | 35.3 ± 0.1 Å | 684.9 nm | 11% | 0.19 | 1577 Å^3 | 7 factor | without the presence of a bilayer-bilayer structure factor (Bragg Peak) | surface area at the collapse of the monolayer [6]: 87 Å^2
